Data published in patent US5277897A, “In vivo enhancement of cellular accumulation of lipophilic cationic organometallic compounds by reduction of intramembrane potential” (Brigham and Women's Hospital, priority 1992, dated 1994).
pEC50: −log10 of the molar value.

What was measured:
[1] = Effect of tetraphenylborate on the biodistribution of Tc-MIBI in rats (Table 2); type: in vivo; conditions: TPB vs no TPB
Protocol: The results are expressed as percent injected dose per gram of tissue. […] For this series of experiments, 50 microliters of dimethylsulfoxide lacking or containing 7.2 mM TPB were injected directly into the jugular vein of anesthetized rats immediately prior to the injection of Tc-MIBI (150 microliters; 100 microCuries per 200 microliters).
After 15 minutes, the animal was sacrificed by thoracotomy, organs extracted and placed in test tubes and counted for radioactivity in a standard well-type gamma counter. Tissue wet weights were obtained by subtracting fare weights from total weight of test tubes plus tissue.
Results are expressed as mean ±SEM of three determinations each.

[2] = tested on: cultured chick heart cells; assay: Influence of TPB and CCCP on (membrane potential-independent) accumulation of Tc-MIBI (FIG. 4); type: cell-based; conditions: TPB; CCCP
Protocol: FIG. 4. […] Preparations were incubated for the times indicated in 5.4 mM Ko control loading buffer containing tracer Tc-MIBI and TPB together (Δ) or in loading buffer containing Tc-MIBI alone (.quadrature.). For the latter incubation, TPB was added to the loading buffer at the arrow and cell content of Tc-MIBI subsequently determined (o). Under each condition, CCCP was added to the loading buffers as indicated by the arrows and cell content of Tc-MIBI determined ( , , ·). Each point is the mean ±SEM of 3 determinations.
(§1) Monolayers of spontaneously contractile chick ventricular myocardial cells were obtained from disaggregated 10-day old chick embryo hearts by a slight modification of previously published methods (Horres, C. R., et al., In Pinson, A. (ed.), The Heart Cell in Culture, Boca Raton, CRC Press, pp. 77-108 (1987)). Hearts were trimmed of connective tissue and atria, finely minced and serially exposed to 0.024% (w/v) trypsin in Ca^2+ - and Mg^2+ - free Earle's salt solution for 7 minutes at 37° C. Gentle trituration and agitation on an orbital shaker bath aided disaggregation. Cells released from the first exposure were discarded and cells aspirated from the next four exposures were then added to an equal volume of trypsin deactivating solution consisting of ice-cold culture medium. Cells were centrifuged at 400 g for 10 minutes, resuspended and combined in culture medium, counted with a hemocytometer and diluted to yield a suspension of 5×10^5 cells/ml. 12 ml of suspension were incubated in 100 mm plastic culture dishes containing 7 coverslips (25 mm diameter) placed on the bottom of each dish to serve as substrate for cell growth. Cells were maintained in a humidified atmosphere of 5% CO2 /95% air for 3-4 days yielding a confluent layer of spontaneously contractile myocytes on each coverslip.
Radioactive uptake methods have been described in detail (Piwnica-Worms, D., et al, Circ. (in press). Briefly, coverslips with confluent cells were removed from culture media and pre-equilibrated for 40-60 seconds in MEBSS buffer. Uptake and retention experiments were initiated by immersion of coverslips in 60 mm glass Pyrex dishes containing loading solution consisting of buffer with 0.1-0.6 nM [^99m Tc-MIBI] (0.01-0.4 Ci/nmole; 25-100 uCi/ml). Preparations were removed at various times and rinsed three times in 25 ml volumes of ice-cold (2° C.) isotope-free buffer for 8 seconds each to clear extracellular spaces. Preparations and aliquots of the loading buffer and stock solutions were counted in a well-type sodium iodide gamma counter after which cell protein on each coverslip was extracted in 1% sodium dodecylsulfate with 10 mM sodium borate and assayed by the method of Lowry (Lowry, O. H., et al., J. Biol. Chem. 193:265-275 (1951)). Tc-MIBI binding to glass coverslips without cells was used as an estimate of non-specific adhesion to the substrate ([…] obtained with cellular preparations); this value was subtracted from total uptake determinations to derive the cell-associated counts. Use of generator equilibrium equations (Lamson, M. L., et al., i J. Nucl. Med. 16:639-641 (1975)) allowed calculation of absolute moles of Tc-MIBI in solutions and preparations. Results were therefore expressed as fmol cellular Tc-MIBI/mg protein per nM extracellular Tc-MIBI concentration. […]

cultured heart cells = assay: TPB toxicity at high concentration in cultured heart cells; type: cell-based, chick; conditions: TPB 10^-4 M
[3] = tested on: cultured chick heart cells; assay: Effect of TPB on net accumulation of Tc-MIBI in cultured chick heart cells (FIG. 1); type: cell-based; conditions: TPB 10^-5 M; P <0.001
Protocol: FIG. 1. Effect of TPB on net accumulation of Tc-MIBI in cultured chick heart cells. Preparations were incubated for the times indicated in Modified Earle's Basic Salt Solution (MEBSS) control buffer containing tracer Tc-MIBI alone (.quadrature.) and with various concentrations of tetraphenylborate: ( ) 10^-9 M; ( ) 5×10^-7 M; (·) 10^-5 M. Results are expressed as fmol cellular Tc-MIBI/mg protein per nM extracellular Tc MIBI. Each point represents the mean ±SEM of 3 determinations.
Control buffer was a modified Earle's balanced salt solution (MEBSS) with the following composition (mN) Na^30, 145; K^+, 5.4; Ca^2, 1.2; Mg^2+, 0.8; Cl, 152; H2 PO4, 0.8; SO4^2-, 0.8; dextrose, 5.6; HEPES, 4.0; and bovine calf serum, 1% (v/v); pH 78.4±0.05; 37° C. […]
(§2) Monolayers of spontaneously contractile chick ventricular myocardial cells were obtained from disaggregated 10-day old chick embryo hearts by a slight modification of previously published methods (Horres, C. R., et al., In Pinson, A. (ed.), The Heart Cell in Culture, Boca Raton, CRC Press, pp. 77-108 (1987)). […] Cells were centrifuged at 400 g for 10 minutes, resuspended and combined in culture medium, counted with a hemocytometer and diluted to yield a suspension of 5×10^5 cells/ml. […]

[4] = tested on: cultured chick heart cells; assay: Concentration-effect curve for TPB enhancement of 2-minute uptake of Tc-MIBI (FIG. 2); type: cell-based
Protocol: FIG. 2. Concentration-effect curve for TPB enhancement of 2-minute uptake of Tc-MIBI. Preparations were pre-incubated for 1 minute in control MEBSS buffer containing TPB at the indicated concentrations prior to determination of tracer Tc-MIBI uptake in the continued presence of TPB. Each point represents the mean ±SEM of 3 determinations.
as §1, with “12 ml of suspension were incubated in 100 mm plastic culture dishes containing 7 coverslips (25 mm diameter) placed on the bottom of each dish to serve as substrate for cell growth. Cells were maintained in a humidified atmosphere of 5% CO2 /95% air for 3-4 days yielding a confluent layer of spontaneously contractile myocytes on each coverslip.” left out

[5] = tested on: cultured chick heart cells; assay: Effect of 8-anilino-1-naphthalene sulfonic acid on net uptake of Tc-MIBI in cultured chick heart cells (FIG. 9); type: cell-based; conditions: Gallus gallus, 0.5 h; 8-ANS 10^-4 M, within 30 minutes; read-out: net uptake of Tc-MIBI enhanced over the control
Protocol: FIG. 9. Effect of 8-anilino-1-naphthalene sulfonic acid on net uptake of Tc-M1B1 in cultured chick heart cells. Preparations were incubated for the times indicated in Tc-MIBI loading buffer in the absence (.quadrature.) and presence of 8-ANS ( , 10^-7 M; , 10^-4 M). Each point represents the mean ±SEM of 3-4 determinations.
as §1, with “12 ml of suspension were incubated in 100 mm plastic culture dishes containing 7 coverslips (25 mm diameter) placed on the bottom of each dish to serve as substrate for cell growth. Cells were maintained in a humidified atmosphere of 5% CO2 /95% air for 3-4 days yielding a confluent layer of spontaneously contractile myocytes on each coverslip.” left out

perfused rabbit heart = conditions: ouabain 1.5×10^-6 M; cited from earlier work
cells and mitochondria = conditions: cited from earlier work; for toxic effects on mitochondrial function: typical loading activities
[6] = tested on: cultured chick heart cells; assay: Effect of phloretin, alone or with TPB, on net uptake of Tc-MIBI in cultured chick heart cells (FIG. 7, 8); type: cell-based
Protocol: FIG. 7. Effect of phloretin on net accumulation of Tc-M1B1 in cultured heart cells. Preparations were incubated for the times indicated in Tc-MIBI loading buffer in the absence (.quadrature.) or presence of phloretin ( , 10^-7 M; , 10^-4 M). Each point represents the mean ±SEM of 3-4 determinations.
FIG. 8. Effect of phloretin and tetraphenylborate together on net uptake of Tc-MB1 in cultured chick heart cells. Preparations were incubated in MEBSS containing Tc-MIBI for 30 minutes in the absence (control) or presence of tetraphenylborate and phloretin each alone or in combination as indicated on the abscissa. Each group of four conditions (two groups in A and one group in B) represent separate cultures. Error bars indicate ±SEM for three or more determinations.
as §2
Radioactive uptake methods have been described in detail (Piwnica-Worms, D., et al, Circ. (in press). Briefly, coverslips with confluent cells were removed from culture media and pre-equilibrated for 40-60 seconds in MEBSS buffer. Uptake and retention experiments were initiated by immersion of coverslips in 60 mm glass Pyrex dishes containing loading solution consisting of buffer with 0.1-0.6 nM [^99m Tc-MIBI] (0.01-0.4 Ci/nmole; 25-100 uCi/ml). Preparations were removed at various times and rinsed three times in 25 ml volumes of ice-cold (2° C.) isotope-free buffer for 8 seconds each to clear extracellular spaces. […] Results were therefore expressed as fmol cellular Tc-MIBI/mg protein per nM extracellular Tc-MIBI concentration. […]

For c1ccc([B-](c2ccccc2)(c2ccccc2)c2ccccc2)cc1 [TPB, tetraphenylborate], the “Tc-MIBI accumulation in liver, kidney, lung and blood” value [1] was “significant increase in Tc-MIBI accumulation within the tissues”, the “increase in tissue retention of Tc-MIBI, all tissues” value [1] was 50% and the “residual CCCP-insensitive Tc-MIBI content, of the TPB-enhanced Tc-MIBI content” value [2] was 13%. For the same compound, the “enhancement of Tc-MIBI accumulation / cellular toxicity” value (cultured heart cells) was “relatively less enhancement of Tc-MIBI accumulation compared to moderate TPB concentrations suggesting cellular toxicity”, the “peak accumulation of Tc-MIBI, greater than control” value [3] was 4 fold and the “myocellular uptake of Tc-MIBI increased in a concentration-dependent manner up to” value [4] was “up to 3×10^-5 M”. For the same compound, the pEC50 ([4]; Gallus gallus, 1 minute pre-incubation with TPB, read-out: half-maximal concentration for TPB enhancement of myocellular uptake of Tc-MIBI) was 5.52.

O=S(=O)(O)c1cccc2cccc(Nc3ccccc3)c12 [8-anilino-1-naphthalene sulfonic acid] showed an activation at 100 µM [5] of 25%.

In the case of CC1OC(OC2CC(O)C3(CO)C4C(O)CC5(C)C(C6=CC(=O)OC6)CCC5(O)C4CCC3(O)C2)C(O)C(O)C1O (stereo not drawn) [oaubain], the “net tissue extraction of Tc-MIBI” value (perfused rabbit heart) is listed as “alter net tissue extraction of Tc-MIBI”.

In the case of COC(=O)c1ccccc1-c1c2ccc(=N)cc-2oc2cc(N)ccc12 [rhodamine 123], the “toxicity to cells and mitochondria” value (cells and mitochondria) is listed as “shown to be toxic to cells and mitochondria” and the “toxic effects on mitochondrial function” value (cells and mitochondria) is listed as “toxic effects on mitochondrial function”.

For O=C(CCc1ccc(O)cc1)c1c(O)cc(O)cc1O [phloretin, 3-(4-hydroxyphenyl)-1-(2,4,6-trihydroxyphenyl)-1-propanone], the fold induction at 100 µM ([6]; Gallus gallus, 0.5 h, phloretin 10^-4 M, 30 minute uptake (FIG. 8), approximately, read-out: net retention of Tc-MIBI above control levels) was 2.5 to 3.5, the “additive enhancement by tetraphenylborate and phloretin” value ([6]; phloretin 10^-4 M and 10^-5 M with 10^-5 M TPB, 30 minutes) was “no evidence of additive enhancement by tetraphenylborate and phloretin” and the “net uptake of Tc-MIBI enhanced above control” value ([6]; phloretin 10^-4 M, within 30 minutes (FIG. 7)) was “five-fold”.

For c1ccc([P+](c2ccccc2)(c2ccccc2)c2ccccc2)cc1 [TPP^+, tetraphenylphosphonium], the “toxic effects on mitochondrial function” value (cells and mitochondria) is listed as “toxic effects on mitochondrial function”.
